Measured values as given in ChEMBL document CHEMBL3813683, “Design, synthesis and anti-cancer activity evaluation of podophyllotoxin-norcantharidin hybrid drugs” (Bioorg Med Chem Lett, 2016).
pIC50: −log10 of the molar value. Calls of active or inactive are those of the source. The calls are words filed in the database; no cut-off is given here.

Assays:
[1] = target: T1, Tubulin (Homo sapiens) (UniProt P68371+Q9H4B7+P0DPH7+P68366+Q13509+Q71U36+P04350+Q3ZCM7+P07437+P68363+Q9BQE3+Q6PEY2+Q13885+Q9BVA1+Q9BUF5); assay: Inhibition of tubulin polymerization in human MCF7 cells assessed as alteration of interphase microtubule network at 2 uM after 24 hrs by DAPI staining-based confocal microscopic analysis; format: cell-based
[2] = tested on: MCF7; assay: Induction of apoptosis in human MCF7 cells assessed as necrotic cells at 1 uM after 24 hrs by Annexin V-FITC/propidium iodide staining-based flow cytometry (reference value: 0.021 to 3.8%); format: functional
[3] = tested on: MCF7; assay: Induction of apoptosis in human MCF7 cells assessed as viable cells at 8 uM after 24 hrs by Annexin V-FITC/propidium iodide staining-based flow cytometry (reference value: 80 to 91.6%); format: functional; conditions: MCF7, 24 h, read-out: Activity
[4] = tested on: MCF7; assay: Cytotoxicity against human MCF7 cells after 36 hrs by MTT assay; format: functional, cell-based; conditions: MCF7, 36 h
[5] = tested on: MCF7; assay: Induction of apoptosis in human MCF7 cells assessed as necrotic cells at 8 uM after 24 hrs by Annexin V-FITC/propidium iodide staining-based flow cytometry (reference value: 0.021 to 3.8%); format: functional
[6] = tested on: MCF7; assay: Cell cycle arrest in human MCF7 cells assessed as accumulation at S phase at 8 uM after 24 hrs by propidium iodide staining-based flow cytometry (reference value: 15.95 to 25.74%); format: functional
[7] = Cytotoxicity against HEK293T cells after 36 hrs by MTT assay; format: cell-based; conditions: Homo sapiens, HEK-293T
[8] = tested on: MCF7; assay: Induction of apoptosis in human MCF7 cells assessed as necrotic cells at 2 uM after 24 hrs by Annexin V-FITC/propidium iodide staining-based flow cytometry (reference value: 0.021 to 3.8%); format: functional
[9] = tested on: MCF7; assay: Induction of apoptosis in human MCF7 cells assessed as late apoptotic cells at 8 uM after 24 hrs by Annexin V-FITC/propidium iodide staining-based flow cytometry (reference value: 5.92 to 9.33%); format: functional
[10] = tested on: MCF7; assay: Induction of apoptosis in human MCF7 cells assessed as viable cells at 4 uM after 24 hrs by Annexin V-FITC/propidium iodide staining-based flow cytometry (reference value: 80 to 91.6%); format: functional; conditions: MCF7, 24 h, read-out: Activity
[11] = tested on: MCF7; assay: Induction of apoptosis in human MCF7 cells assessed as late apoptotic cells at 2 uM after 24 hrs by Annexin V-FITC/propidium iodide staining-based flow cytometry (reference value: 5.92 to 9.33%); format: functional
[12] = tested on: MCF7; assay: Induction of apoptosis in human MCF7 cells assessed as late apoptotic cells at 1 uM after 24 hrs by Annexin V-FITC/propidium iodide staining-based flow cytometry (reference value: 5.92 to 9.33%); format: functional
[13] = tested on: MCF7; assay: Cell cycle arrest in human MCF7 cells assessed as accumulation at G2/M phase at 4 uM after 24 hrs by propidium iodide staining-based flow cytometry (reference value: 3.73 to 10.75%); format: functional
[14] = tested on: HeLa; assay: Cytotoxicity against human HeLa cells after 36 hrs by MTT assay; format: functional, cell-based
[15] = tested on: MCF7; assay: Cell cycle arrest in human MCF7 cells assessed as accumulation at S phase at 2 uM after 24 hrs by propidium iodide staining-based flow cytometry (reference value: 15.95 to 25.74%); format: functional
[16] = tested on: MCF7; assay: Induction of apoptosis in human MCF7 cells assessed as early apoptotic cells at 8 uM after 24 hrs by Annexin V-FITC/propidium iodide staining-based flow cytometry (reference value: 2.45 to 6.92%); format: functional
[17] = tested on: MCF7; assay: Cell cycle arrest in human MCF7 cells assessed as accumulation at G0/G1 phase at 8 uM after 24 hrs by propidium iodide staining-based flow cytometry (reference value: 64.68 to 80.32%); format: functional
[18] = tested on: A549; assay: Cytotoxicity against human A549 cells after 36 hrs by MTT assay; format: functional, cell-based; conditions: A549, 36 h
[19] = tested on: MCF7; assay: Induction of apoptosis in human MCF7 cells assessed as viable cells at 1 uM after 24 hrs by Annexin V-FITC/propidium iodide staining-based flow cytometry (reference value: 80 to 91.6%); format: functional; conditions: MCF7, 24 h, read-out: Activity
[20] = tested on: MCF7; assay: Induction of apoptosis in human MCF7 cells assessed as necrotic cells at 4 uM after 24 hrs by Annexin V-FITC/propidium iodide staining-based flow cytometry (reference value: 0.021 to 3.8%); format: functional
[21] = tested on: MCF7; assay: Induction of apoptosis in human MCF7 cells assessed as late apoptotic cells at 4 uM after 24 hrs by Annexin V-FITC/propidium iodide staining-based flow cytometry (reference value: 5.92 to 9.33%); format: functional
[22] = tested on: MCF7; assay: Induction of apoptosis in human MCF7 cells assessed as viable cells at 2 uM after 24 hrs by Annexin V-FITC/propidium iodide staining-based flow cytometry (reference value: 80 to 91.6%); format: functional; conditions: MCF7, 24 h, read-out: Activity
[23] = tested on: MCF7; assay: Induction of apoptosis in human MCF7 cells assessed as early apoptotic cells at 1 uM after 24 hrs by Annexin V-FITC/propidium iodide staining-based flow cytometry (reference value: 2.45 to 6.92%); format: functional
[24] = tested on: MCF7; assay: Induction of apoptosis in human MCF7 cells assessed as early apoptotic cells at 4 uM after 24 hrs by Annexin V-FITC/propidium iodide staining-based flow cytometry (reference value: 2.45 to 6.92%); format: functional
[25] = tested on: MCF7; assay: Cell cycle arrest in human MCF7 cells assessed as accumulation at S phase at 4 uM after 24 hrs by propidium iodide staining-based flow cytometry (reference value: 15.95 to 25.74%); format: functional
[26] = tested on: MCF7; assay: Induction of apoptosis in human MCF7 cells assessed as early apoptotic cells at 2 uM after 24 hrs by Annexin V-FITC/propidium iodide staining-based flow cytometry (reference value: 2.45 to 6.92%); format: functional
[27] = tested on: MCF7; assay: Cell cycle arrest in human MCF7 cells assessed as accumulation at G0/G1 phase at 2 uM after 24 hrs by propidium iodide staining-based flow cytometry (reference value: 64.68 to 80.32%); format: functional
[28] = tested on: MCF7; assay: Cell cycle arrest in human MCF7 cells assessed as accumulation at G0/G1 phase at 4 uM after 24 hrs by propidium iodide staining-based flow cytometry (reference value: 64.68 to 80.32%); format: functional
[29] = tested on: MCF7; assay: Cell cycle arrest in human MCF7 cells assessed as accumulation at G2/M phase at 2 uM after 24 hrs by propidium iodide staining-based flow cytometry (reference value: 3.73 to 10.75%); format: functional
[30] = tested on: MCF7; assay: Cell cycle arrest in human MCF7 cells assessed as accumulation at G2/M phase at 8 uM after 24 hrs by propidium iodide staining-based flow cytometry (reference value: 3.73 to 10.75%); format: functional
[31] = tested on: MCF7; assay: Induction of apoptosis in human MCF7 cells assessed as increase in PARP cleavage at 8 uM after 24 hrs by Western blot analysis; format: functional, cell-based
[32] = tested on: MCF7; assay: Induction of apoptosis in human MCF7 cells after 24 hrs by Annexin V-FITC/propidium iodide staining-based flow cytometry; format: functional, cell-based
[33] = tested on: MCF7; assay: Downregulation of cyclin B1 in human MCF7 cells at 2 to 8 uM after 24 hrs by Western blot analysis; format: functional, cell-based
[34] = target: T1, Tubulin (Homo sapiens); assay: Inhibition of tubulin polymerization in human MCF7 cells assessed as alteration of interphase microtubule network at 4 uM after 24 hrs by DAPI staining-based confocal microscopic analysis; format: cell-based
[35] = tested on: MCF7; assay: Upregulation of CDK1 in human MCF7 cells at 2 to 8 uM after 24 hrs by Western blot analysis; format: functional, cell-based

| SMILES | Activity [2] [%] | viability at 8 µM [3] [%] | pIC50 [4] | Activity [5] [%] | Activity [6] [%] | pIC50 [7] | Activity [8] [%] | Activity [9] [%] | viability at 4 µM [10] [%] | Activity [11] [%] | Activity [12] [%] | Activity [13] [%] | pIC50 [14] | Activity [15] [%] | Activity [16] [%] | Activity [17] [%] | pIC50 [18] | viability at 1 µM [19] [%] | Activity [20] [%] | Activity [21] [%] | further results |
| --- | --- | --- | --- | --- | --- | --- | --- | --- | --- | --- | --- | --- | --- | --- | --- | --- | --- | --- | --- | --- | --- |
| CC(=O)O[C@H]1C(=O)[C@@]2(C)[C@H]([C@H](OC(=O)c3ccccc3)[C@]3(O)C[C@H](OC(=O)[C@H](O)[C@@H](NC(=O)c4ccccc4)c4ccccc4)C(C)=C1C3(C)C)[C@]1(OC(C)=O)CO[C@@H]1C[C@@H]2O |  |  |  |  |  |  |  |  |  |  |  |  |  |  |  |  |  |  |  |  | inhibition [1]: inactive |
| O=C1OC(=O)C2C3CCC(O3)C12 (stereo not drawn) | 5.89 | 33.5 | 4.92 | 14.2 | 45.68 | 5.01 | 4.21 | 41.3 | 58.1 | 20.8 | 14.5 | 16.7 | 5.04 | 42.95 | 11 | 31.77 | 4.80 | 74 | 11.6 | 22 | viability at 2 µM [22]: 69%; Activity [23]: 5.68%; Activity [24]: 8.3%; Activity [25]: 47.21%; Activity [26]: 6.04%; Activity [27]: 41.61%; Activity [28]: 36.09%; Activity [29]: 15.64%; Activity [30]: 22.55% |
| COc1cc(C2c3cc4c(cc3[C@H](OC(=O)C(Cc3ccccc3)N3C(=O)C5C6CCC(O6)C5C3=O)[C@H]3COC(=O)[C@H]23)OCO4)cc(OC)c1OC (stereo partly drawn) | 0.021 | 31.1 | 6.06 | 0.022 | 32.22 | 4.26 | 0 | 6.97 | 20.7 | 4.51 | 14.2 | 38.94 | 5.49 | 45.05 | 61.9 | 8.17 | 5.11 | 35.4 | 0.03 | 6.15 | Activity [31]: Active; Activity [32]: Dose-dependent effect; Activity [33]: Active; viability at 2 µM [22]: 15.4%; inhibition [34]: Active; Activity [23]: 50.3%; Activity [24]: 73.1%; Activity [25]: 43.82%; Activity [26]: 80.1%; Activity [27]: 22.62%; Activity [28]: 17.24%; Activity [29]: 32.33%; Activity [35]: inactive; Activity [30]: 59.61% |
| COc1cc([C@@H]2c3cc4c(cc3[C@H](O)[C@H]3COC(=O)[C@H]23)OCO4)cc(OC)c1OC [PODOFILOX] | 0.037 | 91.8 | 5.95 | 0.042 | 57.7 | 5.81 | 0.021 | 4.97 | 93.1 | 6.26 | 4.34 | 12.77 | 5.84 | 53.55 | 3.24 | 27.1 | 5.87 | 93.3 | 0.032 | 3.57 | viability at 2 µM [22]: 90.8%; Activity [23]: 2.33%; Activity [24]: 3.35%; Activity [25]: 19.36%; Activity [26]: 2.95%; Activity [27]: 34.48%; Activity [28]: 67.87%; Activity [29]: 11.97%; Activity [30]: 15.2% |
